Legend:
PTK2 = PTK2 (Homo sapiens, UniProt Q05397); assay: Kinase selectivity screen PTK2; conditions: read-out: % inhibition of PTK2
PIP4K2A = molecular target: T1, PIP4K2A (Homo sapiens, UniProt P48426); assay: Kinase selectivity screen PIP4K2A; conditions: read-out: % inhibition of PIP4K2A
T1 sequence (P48426 1-406): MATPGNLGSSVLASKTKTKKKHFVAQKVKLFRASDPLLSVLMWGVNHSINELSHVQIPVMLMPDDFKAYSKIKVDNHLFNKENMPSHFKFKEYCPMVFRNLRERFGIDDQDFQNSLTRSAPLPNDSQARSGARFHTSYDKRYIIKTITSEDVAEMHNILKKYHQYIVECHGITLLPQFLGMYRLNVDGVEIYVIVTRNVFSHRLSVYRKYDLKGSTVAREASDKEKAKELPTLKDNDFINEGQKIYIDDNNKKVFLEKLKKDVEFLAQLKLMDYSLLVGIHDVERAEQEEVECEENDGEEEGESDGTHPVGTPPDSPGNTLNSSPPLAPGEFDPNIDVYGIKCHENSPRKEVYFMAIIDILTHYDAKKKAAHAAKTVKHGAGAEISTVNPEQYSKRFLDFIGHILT

PLK1 = PLK1 (Homo sapiens, UniProt P53350); assay: Kinase selectivity screen PLK1; conditions: read-out: % inhibition of PLK1
FER = FER (Homo sapiens, UniProt P16591); assay: Kinase selectivity screen FER; conditions: read-out: % inhibition of FER
SGK1 = molecular target: T2, SGK1 (Homo sapiens, UniProt O00141); assay: Kinase selectivity screen SGK1; conditions: read-out: % inhibition of SGK1
T2 sequence (O00141 1-431): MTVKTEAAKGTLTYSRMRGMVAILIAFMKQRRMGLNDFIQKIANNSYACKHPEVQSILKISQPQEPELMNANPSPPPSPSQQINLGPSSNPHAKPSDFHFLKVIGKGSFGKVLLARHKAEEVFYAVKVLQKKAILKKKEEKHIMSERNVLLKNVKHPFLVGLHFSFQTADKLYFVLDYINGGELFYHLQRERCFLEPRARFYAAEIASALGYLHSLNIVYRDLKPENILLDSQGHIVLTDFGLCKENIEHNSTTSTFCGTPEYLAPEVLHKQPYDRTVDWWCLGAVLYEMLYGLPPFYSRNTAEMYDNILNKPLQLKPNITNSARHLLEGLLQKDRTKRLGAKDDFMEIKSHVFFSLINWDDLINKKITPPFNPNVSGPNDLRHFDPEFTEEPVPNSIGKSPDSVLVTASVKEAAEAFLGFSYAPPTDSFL

ABL2 = ABL2 (Homo sapiens, UniProt P42684); assay: Kinase selectivity screen ABL2; conditions: read-out: % inhibition of ABL2
FLT1 = FLT1 (Homo sapiens, UniProt P17948); assay: Kinase selectivity screen FLT1; conditions: read-out: % inhibition of FLT1
SRC = SRC (Homo sapiens, UniProt P12931); assay: Kinase selectivity screen SRC; conditions: read-out: % inhibition of SRC
ACVR1B = molecular target: T3, ACVR1B (Homo sapiens, UniProt P36896); assay: Kinase selectivity screen ACVR1B; conditions: read-out: % inhibition of ACVR1B
T3 sequence (P36896 24-505): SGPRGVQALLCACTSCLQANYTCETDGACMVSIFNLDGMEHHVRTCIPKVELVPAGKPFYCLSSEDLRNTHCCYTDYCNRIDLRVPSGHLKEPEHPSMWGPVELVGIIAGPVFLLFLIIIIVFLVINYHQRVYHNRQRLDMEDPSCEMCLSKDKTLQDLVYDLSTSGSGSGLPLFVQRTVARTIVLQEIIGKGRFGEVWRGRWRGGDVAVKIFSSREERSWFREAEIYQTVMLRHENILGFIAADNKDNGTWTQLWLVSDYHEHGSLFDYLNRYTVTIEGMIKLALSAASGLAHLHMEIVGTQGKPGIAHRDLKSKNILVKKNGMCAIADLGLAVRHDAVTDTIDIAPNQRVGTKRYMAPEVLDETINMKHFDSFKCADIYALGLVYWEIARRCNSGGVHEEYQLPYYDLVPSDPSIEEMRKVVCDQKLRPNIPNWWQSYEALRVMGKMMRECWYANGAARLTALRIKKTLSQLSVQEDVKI

CaMK1 = CaMK1 (Homo sapiens, UniProt Q14012); assay: Kinase selectivity screen CaMK1; conditions: read-out: % inhibition of CaMK1
ROCK1 = ROCK1 (Homo sapiens, UniProt Q13464); assay: Kinase selectivity screen ROCK1; conditions: read-out: % inhibition of ROCK1
FES = FES (Homo sapiens, UniProt P07332); assay: Kinase selectivity screen FES; conditions: read-out: % inhibition of FES
BTK = BTK (Homo sapiens, UniProt Q06187); assay: Kinase selectivity screen BTK; conditions: read-out: % inhibition of BTK
MAP3K7 = molecular target: T4, MAP3K7 (Homo sapiens, UniProt O43318); assay: Kinase selectivity screen MAP3K7; conditions: read-out: % inhibition of MAP3K7
T4 sequence (O43318 1-303 limits assumed): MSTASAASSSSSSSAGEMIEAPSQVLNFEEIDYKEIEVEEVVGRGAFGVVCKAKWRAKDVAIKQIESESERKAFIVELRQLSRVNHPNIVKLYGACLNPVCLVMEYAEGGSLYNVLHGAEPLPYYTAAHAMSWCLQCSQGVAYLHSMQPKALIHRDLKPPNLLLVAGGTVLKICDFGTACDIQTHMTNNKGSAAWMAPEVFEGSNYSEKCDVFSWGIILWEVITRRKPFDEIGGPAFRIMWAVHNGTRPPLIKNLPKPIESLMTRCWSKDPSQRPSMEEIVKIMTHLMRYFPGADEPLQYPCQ

STK10 = STK10 (Homo sapiens, UniProt O94804); assay: Kinase selectivity screen STK10; conditions: read-out: % inhibition of STK10
RPS6KA1 = RPS6KA1 (Homo sapiens, UniProt Q15418); assay: Kinase selectivity screen RPS6KA1; conditions: read-out: % inhibition of RPS6KA1

FES, sequence (P07332 whole entry, species assumed): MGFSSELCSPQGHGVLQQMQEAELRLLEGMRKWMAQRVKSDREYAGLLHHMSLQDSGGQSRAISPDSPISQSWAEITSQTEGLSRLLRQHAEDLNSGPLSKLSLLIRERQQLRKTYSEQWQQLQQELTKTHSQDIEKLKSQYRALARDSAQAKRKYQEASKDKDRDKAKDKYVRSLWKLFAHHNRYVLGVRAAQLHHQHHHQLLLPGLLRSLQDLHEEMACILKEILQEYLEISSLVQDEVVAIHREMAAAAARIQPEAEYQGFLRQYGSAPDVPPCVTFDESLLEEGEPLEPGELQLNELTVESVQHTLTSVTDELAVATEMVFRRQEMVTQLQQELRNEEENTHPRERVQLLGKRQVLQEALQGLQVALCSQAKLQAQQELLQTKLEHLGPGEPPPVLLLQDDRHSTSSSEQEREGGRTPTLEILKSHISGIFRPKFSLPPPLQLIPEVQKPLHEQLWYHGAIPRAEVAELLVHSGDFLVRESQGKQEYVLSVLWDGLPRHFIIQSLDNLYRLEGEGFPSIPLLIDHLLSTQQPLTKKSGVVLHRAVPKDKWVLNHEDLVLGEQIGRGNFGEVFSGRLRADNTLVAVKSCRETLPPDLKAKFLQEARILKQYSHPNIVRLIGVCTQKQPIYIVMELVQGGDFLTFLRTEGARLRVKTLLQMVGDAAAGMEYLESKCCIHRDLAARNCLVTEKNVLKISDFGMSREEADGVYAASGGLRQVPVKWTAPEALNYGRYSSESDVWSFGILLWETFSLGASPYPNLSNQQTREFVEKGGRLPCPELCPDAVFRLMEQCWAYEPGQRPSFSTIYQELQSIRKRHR
PTK2, sequence (Q05397 whole entry, species assumed): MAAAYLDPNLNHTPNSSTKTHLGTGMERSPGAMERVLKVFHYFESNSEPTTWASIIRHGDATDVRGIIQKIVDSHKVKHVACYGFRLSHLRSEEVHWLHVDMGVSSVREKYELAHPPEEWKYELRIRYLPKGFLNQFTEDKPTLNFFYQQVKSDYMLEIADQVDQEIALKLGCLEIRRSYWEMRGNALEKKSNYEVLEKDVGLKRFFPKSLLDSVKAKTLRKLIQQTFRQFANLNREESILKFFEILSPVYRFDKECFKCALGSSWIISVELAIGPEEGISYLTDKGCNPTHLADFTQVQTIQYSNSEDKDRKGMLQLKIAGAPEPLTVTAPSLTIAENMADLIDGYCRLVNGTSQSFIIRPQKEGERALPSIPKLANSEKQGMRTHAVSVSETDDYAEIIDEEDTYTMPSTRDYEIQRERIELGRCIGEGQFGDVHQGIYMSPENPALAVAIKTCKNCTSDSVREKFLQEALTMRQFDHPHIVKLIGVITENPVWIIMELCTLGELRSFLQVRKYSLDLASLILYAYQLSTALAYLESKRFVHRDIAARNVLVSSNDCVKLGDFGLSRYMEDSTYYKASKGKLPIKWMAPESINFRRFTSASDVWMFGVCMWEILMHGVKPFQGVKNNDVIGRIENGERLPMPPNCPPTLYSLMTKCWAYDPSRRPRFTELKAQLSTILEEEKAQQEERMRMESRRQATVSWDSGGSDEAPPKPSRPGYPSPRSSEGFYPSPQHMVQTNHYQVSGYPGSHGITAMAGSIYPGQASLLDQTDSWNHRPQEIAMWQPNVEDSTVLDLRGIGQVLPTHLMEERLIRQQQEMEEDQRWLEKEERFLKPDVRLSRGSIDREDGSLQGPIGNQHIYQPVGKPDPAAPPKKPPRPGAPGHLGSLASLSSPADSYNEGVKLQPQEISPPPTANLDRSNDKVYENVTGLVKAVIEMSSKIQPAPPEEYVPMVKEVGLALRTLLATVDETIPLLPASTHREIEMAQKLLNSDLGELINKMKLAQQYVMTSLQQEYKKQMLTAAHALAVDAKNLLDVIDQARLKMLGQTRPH
ROCK1, sequence (Q13464 whole entry, species assumed): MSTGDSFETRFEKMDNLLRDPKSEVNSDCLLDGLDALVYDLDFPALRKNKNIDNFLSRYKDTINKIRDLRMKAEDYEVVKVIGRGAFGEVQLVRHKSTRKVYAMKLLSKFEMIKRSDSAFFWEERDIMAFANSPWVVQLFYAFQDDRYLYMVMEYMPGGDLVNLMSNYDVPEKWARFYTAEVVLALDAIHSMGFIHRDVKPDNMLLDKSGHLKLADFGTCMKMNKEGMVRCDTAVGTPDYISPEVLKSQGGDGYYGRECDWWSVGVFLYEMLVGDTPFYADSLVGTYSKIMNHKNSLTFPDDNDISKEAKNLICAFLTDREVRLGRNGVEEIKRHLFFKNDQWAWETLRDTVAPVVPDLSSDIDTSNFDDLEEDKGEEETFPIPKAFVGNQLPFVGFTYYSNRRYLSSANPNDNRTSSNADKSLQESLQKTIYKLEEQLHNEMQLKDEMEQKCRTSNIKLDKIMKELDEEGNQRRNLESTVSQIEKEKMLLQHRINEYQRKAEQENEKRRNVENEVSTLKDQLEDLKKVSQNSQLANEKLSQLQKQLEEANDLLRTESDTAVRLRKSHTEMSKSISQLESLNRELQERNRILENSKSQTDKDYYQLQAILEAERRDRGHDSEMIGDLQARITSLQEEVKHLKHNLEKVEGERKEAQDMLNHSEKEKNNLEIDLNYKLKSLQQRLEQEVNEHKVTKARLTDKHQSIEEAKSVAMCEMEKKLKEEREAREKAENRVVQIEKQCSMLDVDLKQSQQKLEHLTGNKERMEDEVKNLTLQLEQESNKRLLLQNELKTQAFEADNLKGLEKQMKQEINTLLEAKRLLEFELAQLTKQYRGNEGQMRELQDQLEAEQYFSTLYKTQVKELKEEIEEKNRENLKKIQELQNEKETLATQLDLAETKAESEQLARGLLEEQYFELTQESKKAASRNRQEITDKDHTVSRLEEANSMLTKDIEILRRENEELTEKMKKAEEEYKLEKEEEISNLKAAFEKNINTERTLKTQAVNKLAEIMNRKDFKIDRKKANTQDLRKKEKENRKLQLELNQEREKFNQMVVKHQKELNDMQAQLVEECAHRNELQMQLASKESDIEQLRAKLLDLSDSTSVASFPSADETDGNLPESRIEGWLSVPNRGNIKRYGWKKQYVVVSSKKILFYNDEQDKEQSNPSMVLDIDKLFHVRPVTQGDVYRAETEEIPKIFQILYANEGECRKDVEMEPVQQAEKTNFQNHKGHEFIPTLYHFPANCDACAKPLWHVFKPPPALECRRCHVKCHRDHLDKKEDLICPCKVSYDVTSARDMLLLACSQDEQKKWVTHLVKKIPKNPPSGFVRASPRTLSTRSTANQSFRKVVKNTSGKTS
ABL2, sequence (P42684 whole entry, species assumed): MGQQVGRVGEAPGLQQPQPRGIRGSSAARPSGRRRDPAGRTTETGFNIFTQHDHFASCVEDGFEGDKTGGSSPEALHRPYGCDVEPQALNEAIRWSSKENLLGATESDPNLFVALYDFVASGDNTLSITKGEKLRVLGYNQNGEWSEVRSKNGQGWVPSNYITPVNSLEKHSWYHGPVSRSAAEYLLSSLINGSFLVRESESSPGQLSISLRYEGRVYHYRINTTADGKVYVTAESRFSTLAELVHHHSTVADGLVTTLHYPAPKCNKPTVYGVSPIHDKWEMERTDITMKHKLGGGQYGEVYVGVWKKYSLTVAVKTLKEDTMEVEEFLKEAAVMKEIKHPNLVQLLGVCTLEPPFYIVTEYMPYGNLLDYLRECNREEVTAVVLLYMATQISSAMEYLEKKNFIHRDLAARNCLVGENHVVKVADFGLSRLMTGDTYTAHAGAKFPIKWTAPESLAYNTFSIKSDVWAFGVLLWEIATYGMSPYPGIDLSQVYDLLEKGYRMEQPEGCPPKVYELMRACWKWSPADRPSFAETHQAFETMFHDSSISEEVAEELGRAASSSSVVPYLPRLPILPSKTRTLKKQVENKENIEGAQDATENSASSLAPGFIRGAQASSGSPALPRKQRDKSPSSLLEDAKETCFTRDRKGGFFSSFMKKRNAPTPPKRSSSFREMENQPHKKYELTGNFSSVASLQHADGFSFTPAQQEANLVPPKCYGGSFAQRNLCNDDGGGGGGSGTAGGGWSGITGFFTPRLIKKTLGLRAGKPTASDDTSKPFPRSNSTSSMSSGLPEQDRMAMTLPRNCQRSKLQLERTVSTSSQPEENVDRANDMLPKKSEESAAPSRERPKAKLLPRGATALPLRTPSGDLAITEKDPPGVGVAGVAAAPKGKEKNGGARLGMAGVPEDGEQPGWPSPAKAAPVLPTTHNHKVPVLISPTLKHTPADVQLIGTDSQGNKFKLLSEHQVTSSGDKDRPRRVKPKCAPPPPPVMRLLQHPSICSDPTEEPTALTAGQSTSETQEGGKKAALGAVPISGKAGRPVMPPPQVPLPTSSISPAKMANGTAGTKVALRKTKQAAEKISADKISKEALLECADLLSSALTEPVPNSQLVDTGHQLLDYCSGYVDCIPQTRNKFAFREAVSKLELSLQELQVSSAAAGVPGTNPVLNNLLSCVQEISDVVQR
SRC, sequence (P12931 whole entry): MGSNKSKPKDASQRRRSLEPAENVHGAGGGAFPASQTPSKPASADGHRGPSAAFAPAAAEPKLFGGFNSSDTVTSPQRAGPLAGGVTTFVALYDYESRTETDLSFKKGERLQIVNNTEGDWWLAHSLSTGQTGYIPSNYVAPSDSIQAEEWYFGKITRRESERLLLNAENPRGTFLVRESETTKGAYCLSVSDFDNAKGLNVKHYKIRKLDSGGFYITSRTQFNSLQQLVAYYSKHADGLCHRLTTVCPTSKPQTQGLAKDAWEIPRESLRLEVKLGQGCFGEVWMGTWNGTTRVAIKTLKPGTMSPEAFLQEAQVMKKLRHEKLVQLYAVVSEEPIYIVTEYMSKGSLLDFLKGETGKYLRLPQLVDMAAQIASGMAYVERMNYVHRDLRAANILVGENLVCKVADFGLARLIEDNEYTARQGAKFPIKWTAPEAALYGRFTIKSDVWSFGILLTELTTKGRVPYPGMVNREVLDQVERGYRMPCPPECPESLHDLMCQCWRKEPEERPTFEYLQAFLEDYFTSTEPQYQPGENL

SMILES	inhibition at 1 µM (PTK2) [%]	inhibition at 1 µM (PIP4K2A) [%]	inhibition at 1 µM (PLK1) [%]	inhibition at 1 µM (FER) [%]	inhibition at 1 µM (SGK1) [%]	inhibition at 1 µM (ABL2) [%]	inhibition at 1 µM (FLT1) [%]	inhibition at 1 µM (SRC) [%]	inhibition at 1 µM (ACVR1B) [%]	inhibition at 1 µM (CaMK1) [%]	inhibition at 1 µM (ROCK1) [%]	inhibition at 1 µM (FES) [%]	inhibition at 1 µM (BTK) [%]	inhibition at 1 µM (MAP3K7) [%]	inhibition at 1 µM (STK10) [%]	inhibition at 1 µM (RPS6KA1) [%]
O=C(NCC1CCNCC1)c1nc2c(N3CCc4cc(F)ccc43)ncnc2s1 [Example 58, 7-(5-fluoroindolin-1-yl)-N-(4-piperidylmethyl)thiazolo[5,4-d]pyrimidine-2-carboxamide]	0	7	1	0	24	0	6	0	0	11	0	16	9	14	71	36
CN(C)CCCNC(=O)c1nc2c(N3CCc4cc(F)ccc43)ncnc2s1 [Example 64, N-[3-(dimethylamino)propyl]-7-(5-fluoroindolin-1-yl)thiazolo[5,4-d]pyrimidine-2-carboxamide]	0	0	0	0	41	0	27	0	15	18	4	1	0	0	81	49
CC(C)Oc1cc(F)ccc1Nc1ncnc2sc(C(=O)NCC3CCNCC3)nc12 [Example 10, 7-(4-fluoro-2-isopropoxy-anilino)-N-(4-piperidylmethyl)thiazolo[5,4-d]pyrimidine-2-carboxamide]	16	12	0	4	14	0	12	5	6	11	0	13	6	20	28	30

Reference: patent US10669284B2, “Fused thiazolopyrimidine derivatives as MNKS inhibitors” (LIFEARC, priority 2015, dated 2020)
